# Data as given in US20070021435A1, “AMINOPYRIMIDINES AS KINASE MODULATORS” (priority 2005, published 2007).
# pIC50: −log10 of the molar value.
# Target: T1, isolated kinase domain of the human c-kit receptor (Homo sapiens, UniProt P10721)
# T1 construct: isolated kinase domain of the human c-kit receptor; purchased ProQinase lot SP005
# Test: c-Kit fluorescence polarization kinase assay
# Assay type: biochemical
# Conditions: 1 nM c-kit, 50 uM ATP, 45 minutes; uncertainty ±10%
# Description: The compounds of the present invention are also specific inhibitors of c-Kit. Selection of preferred compounds of Formula I for use as c-Kit inhibitors was performed in the following manner using an in vitro kinase assay to measure inhibition of the isolated kinase domain of the human c-kit receptor in a fluorescence polarization (FP) protocol. The c-kit assay utilized the fluorescein-labeled phosphopeptide and the anti-phosphotyrosine antibody included in the Panvera Phospho-Tyrosine Kinase Kit (Green) supplied by Invitrogen. When c-kit phosphorylated the poly Glu4Tyr, the fluorescein-labeled phosphopeptide was displaced from the anti-phosphotyrosine antibody by the phosphorylated poly Glu4Tyr, thus decreasing the FP value. The c-kit kinase reaction was incubated at room temperature for 45 minutes under the following conditions: 1 nM c-kit (ProQinase, lot SP005), 100 ug/mL poly Glu4Tyr, 50 uM ATP, 5 mM MgCl2, 1 mM DTT, 0.01% Tween-20, 1% DMSO or compound in […], pH 7.5. The kinase reaction was stopped with the addition of EDTA. The fluorescein-labeled phosphopeptide and the anti-phosphotyrosine antibody were added and incubated for 30 minutes at room temperature and fluorescence polarization was read. Data points were an average of triplicate samples.
# T1 sequence (P10721 589-937 limits assumed): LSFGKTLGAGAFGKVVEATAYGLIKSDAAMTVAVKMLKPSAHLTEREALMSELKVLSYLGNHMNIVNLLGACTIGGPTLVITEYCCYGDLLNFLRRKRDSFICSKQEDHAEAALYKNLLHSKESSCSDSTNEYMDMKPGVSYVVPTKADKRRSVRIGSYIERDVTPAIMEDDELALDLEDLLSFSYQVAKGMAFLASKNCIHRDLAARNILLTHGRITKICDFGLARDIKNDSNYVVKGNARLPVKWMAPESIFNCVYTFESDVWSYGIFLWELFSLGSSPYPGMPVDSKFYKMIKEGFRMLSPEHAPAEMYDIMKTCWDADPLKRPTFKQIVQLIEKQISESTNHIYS
row,SMILES,pIC50
1,"CCO/N=C/c1c(N)ncnc1N1CCN(C(=O)Nc2ccc(N3CCCCC3)cc2)CC1 [Example 11, 4-[6-Amino-5-(ethoxyimino-methyl)-pyrimidin-4-yl]-piperazine-1-carboxylic acid (4-piperidin-1-yl-phenyl)-amide]",8.29
2,"CO/N=C/c1c(N)ncnc1N1CCN(C(=O)Nc2ccc(OC(C)C)cc2)CC1 [Example 1, 4-[6-Amino-5-(methoxyimino-methyl)-pyrimidin-4-yl]-piperazine-1-carboxylic acid (4-isopropoxy-phenyl)-amide]",7.98
3,"CC(C)Oc1ccc(NC(=O)N2CCN(c3ncnc(N)c3/C=N/OCCN3CCOCC3)CC2)cc1 [Example 2, 4-{6-Amino-5-[(2-morpholin-4-yl-ethoxyimino)-methyl]-pyrimidin-4-yl}-piperazine-1-carboxylic acid (4-isopropoxy-phenyl)-amide]",7.59

# Target: T2, TrkB (Homo sapiens, UniProt Q16620)
# T2 construct: purchased Upstate 14-507M
# T2 sequence (Q16620 526-822 limits assumed): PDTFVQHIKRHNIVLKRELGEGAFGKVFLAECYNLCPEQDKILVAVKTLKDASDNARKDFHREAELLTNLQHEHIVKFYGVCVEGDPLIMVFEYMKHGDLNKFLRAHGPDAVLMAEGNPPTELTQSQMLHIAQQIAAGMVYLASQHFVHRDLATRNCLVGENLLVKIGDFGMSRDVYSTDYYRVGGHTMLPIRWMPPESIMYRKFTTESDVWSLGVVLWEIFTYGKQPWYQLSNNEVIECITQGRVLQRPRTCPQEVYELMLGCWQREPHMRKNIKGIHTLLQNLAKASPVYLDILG
# Test: TrkB fluorescence polarization kinase assay
# Assay type: biochemical
# Conditions: 50 nM TrkB, 150 uM ATP, 30 minutes; uncertainty ±10%
# Description: The compounds of the present invention are also specific inhibitors of TrkB. Selection of preferred compounds of Formula I for use as TrkB inhibitors was performed in the following manner. The TrkB assay utilized the fluorescein-labeled phosphopeptide and the anti-phosphotyrosine antibody included in the Panvera Phospho-Tyrosine Kinase Kit (Green) supplied by Invitrogen. When TrkB phosphorylated poly Glu4Tyr, the fluorescein-labeled phosphopeptide was displaced from the anti-phosphotyrosine antibody by the phosphorylated poly Glu4Tyr, thus decreasing the FP value. The TrkB kinase reaction was incubated at room temperature for 30 minutes under the following conditions: 50 nM TrkB (Upstate, catalog # 14-507M), 20 ug/mL poly Glu4Tyr, 150 uM ATP, 5 mM MgCl2, 1% compound in DMSO. The kinase reaction was stopped with the addition of EDTA. The fluorescein-labeled phosphopeptide and the anti-phosphotyrosine antibody were added and incubated for 30 minutes at room temperature. Data points were an average of triplicate samples.
row,SMILES,pIC50
1,"CO/N=C/c1c(N)ncnc1N1CCN(C(=O)Nc2ccc(N3CCCCC3)cc2)CC1 [Example 4, 4-[6-Amino-5-(methoxyimino-methyl)-pyrimidin-4-yl]-piperazine-1-carboxylic acid (4-piperidin-1-yl-phenyl)-amide]",5.40
2,"CCO/N=C\c1c(N)ncnc1N1CCN(C(=O)Cc2ccc(C(C)C)cc2)CC1 [Example 14, 4-Amino-6-{4-[2-(4-isopropyl-phenyl)-acetyl]-piperazin-1-yl}-pyrimidine-5-carbaldehyde O-ethyl-oxime (syn-configuration for —C═N—O—)]",5.85
3,"CCO/N=C/c1c(N)ncnc1N1CCN(C(=O)Nc2ccc(OC(C)C)cc2)CC1 [Example 9, 4-[6-Amino-5-(ethoxyimino-methyl)-pyrimidin-4-yl]-piperazine-1-carboxylic acid (4-isopropoxy-phenyl)-amide (anti-configuration for —C═N—O—)]",6.22
4,"CCO/N=C\c1c(N)ncnc1N1CCN(C(=O)Nc2ccc(OC(C)C)cc2)CC1 [Example 10, 4-[6-Amino-5-(ethoxyimino-methyl)-pyrimidin-4-yl]-piperazine-1-carboxylic acid (4-isopropoxy-phenyl)-amide (syn-configuration for —C═N—O—)]",4.96
5,"CO/N=C/c1c(N)ncnc1N1CCN(C(=O)Cc2ccc(C(C)C)cc2)CC1 [Example 7, 4-Amino-6-{4-[2-(4-isopropyl-phenyl)-acetyl]-piperazin-1-yl}-pyrimidine-5-carbaldehyde O-methyl-oxime]",6.30
6,"CO/N=C/c1c(N)ncnc1N1CCN(C(=O)Nc2ccc(Oc3ccccc3)cc2)CC1 [Example 21, 4-[6-Amino-5-(methoxyimino-methyl)-pyrimidin-4-yl]-piperazine-1-carboxylic acid (4-phenoxy-phenyl)-amide]",5.13
7,"CCO/N=C/c1c(N)ncnc1N1CCN(C(=O)Nc2ccc(N3CCCCC3)cc2)CC1 [Example 11, 4-[6-Amino-5-(ethoxyimino-methyl)-pyrimidin-4-yl]-piperazine-1-carboxylic acid (4-piperidin-1-yl-phenyl)-amide]",5.59
8,"CC(C)Oc1ccc(NC(=O)N2CCN(c3ncnc(N)c3/C=N/OCC(=O)N3CCOCC3)CC2)cc1 [Example 16, 4-{6-Amino-5-[(2-morpholin-4-yl-2-oxo-ethoxyimino)-methyl]-pyrimidin-4-yl}-piperazine-1-carboxylic acid (4-isopropoxy-phenyl)-amide]",4.95
9,"CC(C)Oc1ccc(NC(=O)N2CCN(c3ncnc(N)c3/C=N/OCCCO)CC2)cc1 [Example 3, 4-{6-Amino-5-[(3-hydroxy-propoxyimino)-methyl]-pyrimidin-4-yl}-piperazine-1-carboxylic acid (4-isopropoxy-phenyl)-amide]",5.89
10,"CCO/N=C/c1c(N)ncnc1N1CCN(C(=O)Nc2ccc(OC3CCC3)nc2)CC1 [Example 12, 4-[6-Amino-5-(ethoxyimino-methyl)-pyrimidin-4-yl]-piperazine-1-carboxylic acid (6-cyclobutoxy-pyridin-3-yl)-amide]",5.80
11,"CO/N=C/c1c(N)ncnc1N1CCN(C(=O)Nc2ccc(N3CCOCC3)cc2)CC1 [Example 5, 4-[6-Amino-5-(methoxyimino-methyl)-pyrimidin-4-yl]-piperazine-1-carboxylic acid (4-morpholin-4-yl-phenyl)-amide]",5.08
12,"CO/N=C/c1c(N)ncnc1N1CCN(C(=O)Nc2ccc(OC3CCC3)nc2)CC1 [Example 6, 4-[6-Amino-5-(methoxyimino-methyl)-pyrimidin-4-yl]-piperazine-1-carboxylic acid (6-cyclobutoxy-pyridin-3-yl)-amide]",5.46
13,"CO/N=C/c1c(N)ncnc1N1CCN(C(=O)Nc2ccc(N3CCCC3)cc2)CC1 [Example 18, 4-[6-Amino-5-(methoxyimino-methyl)-pyrimidin-4-yl]-piperazine-1-carboxylic acid (4-pyrrolidin-1-yl-phenyl)-amide]",5.59
14,"CCO/N=C/c1c(N)ncnc1N1CCN(C(=O)Cc2ccc(C(C)C)cc2)CC1 [Example 13, 4-Amino-6-{4-[2-(4-isopropyl-phenyl)-acetyl]-piperazin-1-yl}-pyrimidine-5-carbaldehyde O-ethyl-oxime (anti-configuration for —C═N—O—)]",5.66
15,"CO/N=C/c1c(N)ncnc1N1CCN(C(=O)Nc2ccc(Cl)cc2)CC1 [Example 20, 4-[6-Amino-5-(methoxyimino-methyl)-pyrimidin-4-yl]-piperazine-1-carboxylic acid (4-chloro-phenyl)-amide]",4.81
16,"CO/N=C/c1c(N)ncnc1N1CCN(C(=O)Nc2ccc(C(C)C)cc2)CC1 [Example 8, 4-[6-Amino-5-(methoxyimino-methyl)-pyrimidin-4-yl]-piperazine-1-carboxylic acid (4-isopropyl-phenyl)-amide]",5.96
17,"CO/N=C/c1c(N)ncnc1N1CCN(C(=O)Nc2ccc(OC3CCCC3)nc2)CC1 [Example 17, 4-[6-Amino-5-(methoxyimino-methyl)-pyrimidin-4-yl]-piperazine-1-carboxylic acid (6-cyclopentyloxy-pyridin-3-yl)-amide]",6.10
18,"CO/N=C/c1c(N)ncnc1N1CCN(C(=O)Nc2ccc(C3CCCCC3)cc2)CC1 [Example 19, 4-[6-Amino-5-(methoxyimino-methyl)-pyrimidin-4-yl]-piperazine-1-carboxylic acid (4-cyclohexyl-phenyl)-amide]",5.77
19,"CO/N=C/c1c(N)ncnc1N1CCN(C(=O)Nc2ccc(OC(C)C)cc2)CC1 [Example 1, 4-[6-Amino-5-(methoxyimino-methyl)-pyrimidin-4-yl]-piperazine-1-carboxylic acid (4-isopropoxy-phenyl)-amide]",6.10
20,"CC(C)Oc1ccc(NC(=O)N2CCN(c3ncnc(N)c3/C=N/OCCN3CCOCC3)CC2)cc1 [Example 2, 4-{6-Amino-5-[(2-morpholin-4-yl-ethoxyimino)-methyl]-pyrimidin-4-yl}-piperazine-1-carboxylic acid (4-isopropoxy-phenyl)-amide]",5.00
21,"CCO/N=C/c1c(N)ncnc1N1CCN(C(=O)Nc2ccc(N3CCOCC3)cc2)CC1 [Example 15, 4-[6-Amino-5-(ethoxyimino-methyl)-pyrimidin-4-yl]-piperazine-1-carboxylic acid (4-morpholin-4-yl-phenyl)-amide]",5.11
